Measurements published in article PMC12348585, “Semi-Synthesis, Anti-Leukemia Activity, and Docking Study of Derivatives from 3α,24-Dihydroxylup-20(29)-en-28-Oic Acid” (Molecules, 2025).

Legend:
[1] = tested on: peripheral blood mononuclear cells (MNCs); experiment: Cell viability assay in normal mononuclear cells; assay type: cell-based, human
Procedure: (§1) All compounds were dissolved in dimethyl sulfoxide (DMSO) at a concentration of 20 mg/mL. In all assays, culture medium containing 0.1% DMSO was used as the negative control, while dasatinib was included as the positive control. Normal mononuclear cells (MNCs) were included as the normal cell control. All experiments were performed in triplicate. Normal mononuclear cells (MNCs) were isolated from peripheral blood mononuclear cells obtained from healthy human donors. Cell collection was conducted in accordance with institutional guidelines, including written informed consent from each participant. All procedures were approved by Ethics and Scientific Committee of the Mexican Institute of Social Security (IMSS, ethical approval number: CNIC R-2021-785-025). The MNCs were purified using FicollPaque Plus (Pharmacia Biotech, Uppsala, Sweden) by centrifugation at 400× g for 30 min at room temperature, following the manufacturer’s protocol. The resulting cells were resuspended in RPMI-1640 medium supplemented with 10% fetal bovine serum (FBS) and counted using a hemocytometer after trypan blue staining, confirming a viability of 95% [56]. […] After incubation, both leukemic cells and MNCs were collected, washed with phosphate-buffered saline (PBS), and stained with DAPI (500 ng/mL) for 15 min in darkness, following the manufacturer’s instructions. Fluorescence was analyzed using a FACSVerse flow cytometer (BD Bioscience, San Jose, CA, USA). Flow cytometry data were analyzed using FlowJo^TM software (version 10.9). […] All experiments were performed in triplicate, and results were expressed as means ± standard errors of the means (SEMs). Statical analysis was performed using one-way analysis of variance (ANOVA), followed by Dunnett’s post hoc test to compare treated groups against the control.

REH = experiment: Cell viability assay (DAPI, flow cytometry), REH; assay type: cell-based; conditions: for IC50: Homo sapiens, REH, 48 h, mean ± SEM, N/A: not active; for SI: selectivity index, REH: ratio of IC50 in the MNC line over IC50 in the leukemia cell line
Procedure: (§2) Cell lines were cultured in RPMI 1640 medium (Roswell Park Memorial Institute medium) supplemented with 10% fetal bovine serum (FBS) and 1% penicillin–streptomycin. Cultures were maintained at 37 °C in a humidified incubator with 5% CO2. All biological evaluations were performed using cell between passages 3 and 4. All compounds were dissolved in dimethyl sulfoxide (DMSO) at a concentration of 20 mg/mL. In all assays, culture medium containing 0.1% DMSO was used as the negative control, while dasatinib was included as the positive control. Normal mononuclear cells (MNCs) were included as the normal cell control. All experiments were performed in triplicate. Leukemic cell lines and normal mononuclear cells (MNCs) were used to evaluate the cytotoxicity of the compounds. Leukemic cells (1 × 10^5 cells/well) were cultured in 96-well plates and treated with increasing concentrations of compounds (0.02, 0.2, 2.0, and 20 µM) for 48 h. After incubation, both leukemic cells and MNCs were collected, washed with phosphate-buffered saline (PBS), and stained with DAPI (500 ng/mL) for 15 min in darkness, following the manufacturer’s instructions. Fluorescence was analyzed using a FACSVerse flow cytometer (BD Bioscience, San Jose, CA, USA). Flow cytometry data were analyzed using FlowJo^TM software (version 10.9). […] All experiments were performed in triplicate, and results were expressed as means ± standard errors of the means (SEMs). Statical analysis was performed using one-way analysis of variance (ANOVA), followed by Dunnett’s post hoc test to compare treated groups against the control.

CCRF-CEM cell line = experiment: Apoptosis assay (annexin V-FITC/DAPI flow cytometry), CCRF-CEM; assay type: cell-based
Procedure: (§3) Since compound T1c was the only derivative that decreased the cell viability of leukemic cells (IC50 ≤ 20 µΜ), without affecting viability in normal MNC cells, its mode of action to exert cytotoxic effects was evaluated by flow cytometry techniques, determining the apoptotic effect at 48 h, using ½ IC50 and IC50 concentrations obtained in the viability assay in the different leukemia cell lines. Dasatinib at different concentrations was included as a positive control. Cell death was quantified by dual staining with annexin V-FITC and DAPI. Annexin V binds to externalized phosphatidylserine residues during early and late apoptosis, whereas DAPI penetrates membrane-compromised cells, distinguishing between late apoptotic and necrotic cells. The total percentage of apoptotic cells was calculated as the sum of early and late apoptotic populations. The results were normalized to 100% with respect to the negative control.
(§4) Apoptosis induction was evaluated by flow cytometry. Cells (1 × 10^5 cells/well) were cultured in 96-well plates and exposed to the compounds at two concentrations (½ and 1 × IC50). After 48 h of treatment, the cells were washed with phosphate-buffered saline (PBS) and stained with annexin V-FITC (BD Bioscience) for 15 min in the dark. Following a second PBS wash, the cells were stained with DAPI (500 ng/mL) for 15 min in darkness. The stained samples were subsequently analyzed on a FACSVerse cytometer (BD Bioscience, San Jose, CA, USA).

JURKAT cell line = experiment: Apoptosis assay (annexin V-FITC/DAPI flow cytometry), JURKAT; assay type: cell-based
Procedure: as §3, §4

[2] = Cell viability assay in normal mononuclear cells; assay type: cell-based, human; conditions: human
Procedure: as §1

MOLT-4 cell line = experiment: Apoptosis assay (annexin V-FITC/DAPI flow cytometry), MOLT-4; assay type: cell-based
Procedure: as §3, §4

THP-1 = experiment: Cell viability assay (DAPI, flow cytometry), THP-1; assay type: cell-based; conditions: for IC50: Homo sapiens, THP-1, 48 h, mean ± SEM, N/A: not active; for SI: selectivity index, THP-1: ratio of IC50 in the MNC line over IC50 in the leukemia cell line
Procedure: as §2

JURKAT = experiment: Cell viability assay (DAPI, flow cytometry), JURKAT; assay type: cell-based; conditions: for IC50: Homo sapiens, Jurkat, 48 h, mean ± SEM, N/A: not active; for SI: selectivity index, JURKAT: ratio of IC50 in the MNC line over IC50 in the leukemia cell line
Procedure: as §2

THP-1 cell line = experiment: Apoptosis assay (annexin V-FITC/DAPI flow cytometry), THP-1; assay type: cell-based
Procedure: as §3, §4

MOLT-4 = experiment: Cell viability assay (DAPI, flow cytometry), MOLT-4; assay type: cell-based; conditions: for IC50: Homo sapiens, MOLT-4, 48 h, mean ± SEM, N/A: not active
Procedure: as §2

[3] = tested on: leukemia cell lines (CCRF-CEM, REH, JURKAT, MOLT-4, THP-1); experiment: Cell viability assay, all leukemia cell lines tested (summary statements); assay type: cell-based; conditions: for IC50: read-out: IC50 across all leukemia cell lines tested
Procedure: as §2

CCRF-CEM = experiment: Cell viability assay (DAPI, flow cytometry), CCRF-CEM; assay type: cell-based; conditions: for IC50: Homo sapiens, CCRF-CEM, 48 h, mean ± SEM, N/A: not active; for SI: selectivity index, CCRF-CEM: ratio of IC50 in the MNC line over IC50 in the leukemia cell line
Procedure: as §2

[4] = 48 h, summary over CCRF-CEM, REH, JURKAT, MOLT-4, THP-1

For C=C(C)C1CCC2(C(=O)O)CCC3(C)C(CCC4C5(C)CCC(OC)C(C)(CO)C5CCC43C)C12 (stereo not drawn) [Compound T1a, 3α-methoxy-24-hydroxylup-20(29)-en-28-oic acid], the “IC50 MNCs” value [1] was “no activity” and the IC50 (REH) was greater than 20 µM.

In the case of C=C(C=O)C1CCC2(C(=O)O)CCC3(C)C(CCC4C5(C)CCC(O)C(C)(CO)C5CCC43C)C12 (stereo not drawn) [Compound T1c, 3α,24-dihydroxy-30-oxolup-20(29)-en-28-oic acid], the “apoptosis rate (early + late)” value (CCRF-CEM cell line; IC50, 48 h) is reported as 97.13 ± 0.36%, the early apoptotic cells (CCRF-CEM cell line; IC50, 48 h) is reported as 16.92% and the late apoptotic cells (CCRF-CEM cell line; IC50, 48 h) is reported as 80.21%. For the same molecule, the “apoptosis rate (early + late)” value (CCRF-CEM cell line; ½ IC50, 48 h) was 62.40 ± 1.57%, the early apoptotic cells (CCRF-CEM cell line; ½ IC50, 48 h) was 16.98% and the late apoptotic cells (CCRF-CEM cell line; ½ IC50, 48 h) was 45.42%. For the same molecule, the “apoptosis rate (early + late)” value (JURKAT cell line; IC50, 48 h) was 96.37 ± 0.49%, the early apoptotic cells (JURKAT cell line; IC50, 48 h) was 47.61% and the late apoptotic cells (JURKAT cell line; IC50, 48 h) was 48.72%. The “apoptosis rate (early + late)” value (JURKAT cell line; ½ IC50, 48 h) was 67.14 ± 2.18%, the early apoptotic cells (JURKAT cell line; ½ IC50, 48 h) was 30.60% and the late apoptotic cells (JURKAT cell line; ½ IC50, 48 h) was 36.55%. The IC50 at 48 h [2] was greater than 200 µM, the “apoptosis rate (early + late)” value (MOLT-4 cell line; MOLT-4, IC50, 48 h) was 94.58 ± 0.45% and the early apoptotic cells (MOLT-4 cell line; MOLT-4, IC50, 48 h) was 30.12%. The late apoptotic cells (MOLT-4 cell line; MOLT-4, IC50, 48 h) was 64.46%, the “apoptosis rate (early + late)” value (MOLT-4 cell line; MOLT-4, ½ IC50, 48 h) was 69.91 ± 2.17% and the early apoptotic cells (MOLT-4 cell line; MOLT-4, ½ IC50, 48 h) was 41.15%. For the same molecule, the late apoptotic cells (MOLT-4 cell line; MOLT-4, ½ IC50, 48 h) was 28.76%, the IC50 (THP-1) was 12.9 ± 0.1 µM and the “SI: selectivity index, THP-1” value (THP-1) was 103.46. The IC50 (JURKAT) was 18.7 ± 1.4 µM, the “SI: selectivity index, JURKAT” value (JURKAT) was 71.46 and the “apoptosis rate (early + late)” value (THP-1 cell line; THP-1, IC50, 48 h) was 52.23 ± 1.69%. For the same molecule, the early apoptotic cells (THP-1 cell line; THP-1, IC50, 48 h) was 22.84%, the late apoptotic cells (THP-1 cell line; THP-1, IC50, 48 h) was 29.39% and the “apoptosis rate (early + late)” value (THP-1 cell line; THP-1, ½ IC50, 48 h) was 29.40 ± 2.66%. The early apoptotic cells (THP-1 cell line; THP-1, ½ IC50, 48 h) was 14.50%, the late apoptotic cells (THP-1 cell line; THP-1, ½ IC50, 48 h) was 14.90% and the IC50 (MOLT-4) was 13.9 ± 0.7 µM. The IC50 [3, 4] was 12.9 to 24.9 µM, the “SI (selectivity against leukemia cell lines vs MNCs)” value ([3]; summary statement) was greater than 10 and the IC50 (CCRF-CEM) was 17.8 ± 1 µM. For the same molecule, the “SI: selectivity index, CCRF-CEM” value (CCRF-CEM) was 75.02, the IC50 (REH) was greater than 20 µM and the “SI: selectivity index, REH” value (REH) was 53.55.

With C=C(C)C1CCC2(C(=O)O)CCC3(C)C(CCC4C5(C)CCC(O)C(C)(CO)C5CCC43C)C12 (stereo not drawn) [Compound T1, 3α,24-dihydroxylup-20(29)-en-28-oic acid] the IC50 at 48 h [2] was greater than 200 µM and the “IC50 across all leukemia cell lines tested” value [3, 4] was “no activity”.

For C=C(C=O)C1CCC2(C(=O)O)CCC3(C)C(CCC4C5(C)CCC(OC)C(C)(CO)C5CCC43C)C12 (stereo not drawn) [Compound T1b, 3α-methoxy-24-hydroxy-30-oxolup-20(29)-en-28-oic acid], the IC50 at 48 h [2] was 10.8 ± 1.3 µM, the IC50 (THP-1) was 11.04 ± 0.1 µM and the “SI: selectivity index, THP-1” value (THP-1) was 0.97. The IC50 (JURKAT) was 15 ± 1.6 µM, the “SI: selectivity index, JURKAT” value (JURKAT) was 0.72 and the IC50 (MOLT-4) was 4.05 ± 0.1 µM. The “SI: selectivity index, MOLT-4” value (MOLT-4; ratio of IC50 in the MNC line over IC50 in the leukemia cell line) was 2.66, the IC50 [3, 4] was 4.05 to 15 µM and the IC50 (CCRF-CEM) was 6.87 ± 0.6 µM. The “SI: selectivity index, CCRF-CEM” value (CCRF-CEM) was 1.59, the IC50 (REH) was 9.46 ± 3.2 µM and the “SI: selectivity index, REH” value (REH) was 1.13.
